According to patent publication US5037826A, “1-substituted naphthyridine and pyridopyrazine derivatives” (Schering Corporation, priority 1986, dated 1991):

What was measured:
[1] = system: antigen induced broncho-constriction in sensitized guinea pigs; test: Inhibition of anaphylactic bronchospasm in sensitized guinea pigs (ovalbumin challenge); format: in vivo, guinea pig; details: 2 hours before ovalbumin challenge, vs vehicle-treated control
Procedure: The compounds of this invention may be employed as anti-allergy agents in the treatment of, for example, asthma, allergic or seasonal rhinitis, and/or chronic bronchitis. The anti-allergy method of this invention is identified by tests which measure a compound's inhibition of anaphylactic bronchosoasm in sensitized guinea pigs having antigen induced broncho-constriction.
In one such test procedure, male Hartley guinea pigs (250-300 g) are sensitized with 5 mg ovalbumin injected i.p. and 5 mg injected s.c. in 1 ml saline on day 1 and 5 mg ovalbumin injected i.p. on day 4. The sensitized animals are used 3-4 weeks later at which time they weigh 450-500 g.
The sensitized guinea pigs are fasted overnight and the following morning are anesthetized with 0.9 ml/kg i.p. of dialurethane (0.1 g/ml diallybarbituric acid, 0.4 g/ml ethylurea and 0.4 g/ml urethane). The trachea are cannulated and the animals are ventilated by a Harvard® rodent respirator at 50 strokes/minute with a stroke volume of 5 ml. A side arm to the tracheal cannula is connected to a pressure transducer (Harvard) to obtain a continuous measure of intratracheal pressure which is recorded on a polygraph (Harvard). The jugular vein is cannulated for the i.v. administration of substances. The animals are challenged with antigen (0.5% ovalbumin) as an aerosol generated from a DeVilbiss® Model 65 ultrasonic nebulizer and delivered through the tracheal cannula for 30 seconds. Bronchoconstriction is measured as the peak increase in intratracheal pressure occurring within 5 minutes after antigen challenge.
The sensitized guinea pigs are injected i.v. with 1 mg/kg propranolol, 5 mg/kg indomethacin and 2 mg/kg mepyramine given together in a volume of 1 ml/kg. Fifteen minutes later the animals are challenged with nebulized ovalbumin. Test compounds are administered orally 2 hours before challenge with ovalbumin. Suppression of anaphylactic bronchospasm is expressed as a percent inhibition of the peak increase in intratracheal pressure by comparison to a vehicle-treated control group.

[2] = system: reverse passive Arthus reaction in the pleural cavity of rats; test: Reverse passive Arthus reaction in the pleural cavity of rats (Myers et al.); format: in vivo; details: Rattus norvegicus, po; pleural fluid
Procedure: Another procedure for testing for acute anti-inflammatory activity measures the reverse passive Arthus reaction in the pleural cavity of rats as described in Myers et al., Inflammation, Vol. 9, No. 1, 1985, pp. 91-98. Compound A provided an ED50 value (fluid) of about 5.0 mg/kg p.o. in such procedure.

[3] = system: spleen weight of BDF1 mice; test: Splenic atrophy, decrease in spleen weight; format: in vivo; details: Mus musculus, oral, seven consecutive days
Procedure: The immunosuppressive activity of the compounds may also be shown by a decrease in spleen weight after dosing BDF1 mice orally with the drug for seven (7) consecutive days. The mice are sacrificed on the eighth day. The percent decrease in spleen weight is measured for each dosage level. In this procedure, Compound A provided an ED30 of less than 25 mg/kg.

[4] = system: GVHR splenomegaly in C57 B1/6XA/J(F6AF1) male mice; test: Graft vs. host reaction (GVHR), spleen weight; format: in vivo, mouse; details: 100 mg/kg orally for 10 days; compared to untreated animals
Procedure: To induce a GVHR, C57 B1/6XA/J(F6AF1) male mice were injected intravenously with parental (C57B/6J) spleen and lymph node cells. 3-(2-Hydroxyethyl)-1-phenyl-1,8-naphthyridin-2(1H)-one (Compound A) was then administered orally for 10 days beginning on the day prior to the cell transfer. On the day following the last treatment, the animals were sacrificed, and their spleens were excised and weighed. The enlargement of the spleen of the host is a result of a GVHR. To some extent it is the host's own cells which infiltrate and enlarge the spleen although they do this because of the presence of graft cells reacting against the host. The amount of spleen enlargement, splenomegaly, is taken as a measure of the severity of the GVHR.
In carrying out the GVHR the animal in the experimental group is injected with parental cells, cells of the same species but of different genotype, which cause a weight increase of the spleen. […] The effectiveness of the compounds administered to the mice in the experimental group is measured by comparing the spleen weight of the untreated and treated GVH animal with that of the syngeneic control. Compound A in this test procedure reduced spleen weight by 92% at a dose of 100 mg/kg as compared to the untreated animals.

[5] = system: Reversed Passive Arthus Response in the right rear paw of rats; test: Reversed Passive Arthus Response (RPAR), rat paw volume; format: in vivo; details: 25 mg/kg p.o. once daily for 3 days
Procedure: Male Lewis inbred albino rats weighing 180-200 grams obtained from Charles River Breeding Laboratories are used in these experiments. The rats are housed 3 animals/cage and food and water are allowed ad libitum. The animals are numbered 1-3 in each cage and color marked for identification purposes.
All reagents and drugs are prepared just prior to the study. Crystallized and lyophilized bovine serum albumin (BSA), available from Sigma Chemical Company, is solubilized without shaking in cold, sterile, pyrogen-free saline (10 mg/ml). Lyophilized anti-bovine serum albumin (IgG fraction), obtained from Cappel Laboratories, is suspended in sterile distilled water and diluted with cold, pyrogen-free saline (PFS) just prior to use. […]
Groups of animals (6/group) are dosed with drug in MC by gavace once daily for 3 days. […] The volume of mercury displaced is converted to weight and recorded. This value is considered to be the control reading for the animal. Paw volumes are subsequently recorded with a plethysmograph during the development of the inflammation at 2 and 4 hours post-challenge.
Results are expressed by the chance in paw volume (Δ paw volume) from the control reading for each animal to that recorded 2 and 4 hours post-challenge. […] Differences from control in drug-treated groups are expressed as percent change from control are determined.

[6] = Carboni et al., Farmaco, Ed. Sci., 1973; cited from earlier work

With `O=c1c(CCO)cc2cccnc2n1-c1ccccc1` [Compound A, 3-(2-Hydroxyethyl)-1-phenyl-1,8-naphthyridin-2(1H)-one] the “% Inhibition of anaphylactic bronchospasm (peak increase in intratracheal pressure)” value ([1]; dose p.o. 5 mg/kg) was 78%, the ED50 [2] was about 5 mg/kg and the ED30 [3] was under 25 mg/kg. For the same compound, the “reduction of spleen weight” value [4] was 92%.
For `COCCOc1c(C)c2cccnc2n(-c2ccccc2)c1=O` [Compound C], the “% inhibition (Δ paw volume) after 2 hours” value ([5]; 2 hours post-challenge) was 74%, the “% inhibition (Δ paw volume) after 4 hours” value ([5]; 4 hours post-challenge) was 36% and the “% Inhibition of anaphylactic bronchospasm (peak increase in intratracheal pressure)” value ([1]; dose p.o. 5 mg/kg) was 25%.
In the case of `O=c1ccc2ccc(OCc3ccccc3)nc2n1Cc1ccccc1` [1-benzyl-7-benzyloxy-[1,8]naphthyridin-2-one], the antibacterial activity [6] is given as “inactive”.
In the case of `O=c1c(CCO)cc2cccnc2n1-c1cccc(Cl)c1` [B], the “% Inhibition of anaphylactic bronchospasm (peak increase in intratracheal pressure)” value ([1]; dose p.o. 2 mg/kg) is reported as 79%.
